Experimental data as given in US20140228715A1, “Method and Apparatus for Delivering a Substance” (The General Hospital Corporation, priority 2011, published 2014).

Assay: Franz diffusion cell permeability of GI tissue exposed to ultrasound, scintigraphy of tissue and receiver chamber
Conditions: 1-MHz, 1.4 W/cm^2; 5 min ultrasound + 55 min passive diffusion vs 30 min + 30 min

## inulin
  transport into or across the tissue, effect of irradiation profile: the longer irradiation time was more effective
